Assay results published in ChEMBL document CHEMBL5465560, “Selectivity Literature for EUbOPEN Chemogenomic Library” (2024).

How the values were obtained:
[1] = target: Ribosomal protein S6 kinase alpha-4 (Homo sapiens) (UniProt O75676); assay: Selectivity interaction (Kinase screening (Nanosyn)) EUB0000604a RPS6KA4
[2] = target: T1, 5-hydroxytryptamine receptor 2C (Homo sapiens) (UniProt P28335); assay: Selectivity interaction (Panel of kinases, GPCRs, ion channels and transporters (enzymatic assay)) EUB0000266bCl HTR2C
T1 sequence (whole entry): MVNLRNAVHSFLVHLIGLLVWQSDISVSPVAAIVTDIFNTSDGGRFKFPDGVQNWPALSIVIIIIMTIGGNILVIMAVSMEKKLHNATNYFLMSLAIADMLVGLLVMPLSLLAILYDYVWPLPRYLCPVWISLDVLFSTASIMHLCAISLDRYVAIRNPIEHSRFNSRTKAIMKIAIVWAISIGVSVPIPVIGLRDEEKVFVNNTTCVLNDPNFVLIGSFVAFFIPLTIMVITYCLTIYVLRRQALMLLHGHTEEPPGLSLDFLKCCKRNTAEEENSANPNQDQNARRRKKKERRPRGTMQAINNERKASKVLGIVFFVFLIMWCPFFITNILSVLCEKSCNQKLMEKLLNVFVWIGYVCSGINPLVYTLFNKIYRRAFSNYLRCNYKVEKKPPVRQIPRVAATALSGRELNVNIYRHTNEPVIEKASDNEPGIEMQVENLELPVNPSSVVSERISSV

[3] = target: T2, Serine/threonine-protein kinase NLK (Homo sapiens) (UniProt Q9UBE8); assay: Selectivity interaction (Kinase panel (Invitrogen)) EUB0000639a NLK; settings: at 200 nM
T2 sequence (whole entry): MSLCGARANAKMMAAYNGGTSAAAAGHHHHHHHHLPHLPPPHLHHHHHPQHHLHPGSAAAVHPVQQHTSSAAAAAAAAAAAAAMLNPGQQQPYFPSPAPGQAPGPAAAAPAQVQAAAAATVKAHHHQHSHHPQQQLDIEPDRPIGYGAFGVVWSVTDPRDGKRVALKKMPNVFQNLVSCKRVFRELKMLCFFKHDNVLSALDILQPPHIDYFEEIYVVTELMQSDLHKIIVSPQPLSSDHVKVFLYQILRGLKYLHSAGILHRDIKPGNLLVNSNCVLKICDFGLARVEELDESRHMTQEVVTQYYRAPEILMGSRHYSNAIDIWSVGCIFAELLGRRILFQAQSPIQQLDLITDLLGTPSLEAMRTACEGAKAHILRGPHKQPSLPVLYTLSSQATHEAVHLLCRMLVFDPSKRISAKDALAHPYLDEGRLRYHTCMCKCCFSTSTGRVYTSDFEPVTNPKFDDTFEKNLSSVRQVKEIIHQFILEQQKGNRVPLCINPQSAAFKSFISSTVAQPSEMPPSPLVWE

[4] = target: Serine/threonine-protein kinase MARK1 (Homo sapiens) (UniProt Q9P0L2); assay: Selectivity interaction (Kinase panel (Z-LYTE Assay)) EUB0001632a MARK1; settings: at 10 µM
Serine/threonine-protein kinase MARK1 (Homo sapiens), sequence (Q9P0L2 whole entry, looked up): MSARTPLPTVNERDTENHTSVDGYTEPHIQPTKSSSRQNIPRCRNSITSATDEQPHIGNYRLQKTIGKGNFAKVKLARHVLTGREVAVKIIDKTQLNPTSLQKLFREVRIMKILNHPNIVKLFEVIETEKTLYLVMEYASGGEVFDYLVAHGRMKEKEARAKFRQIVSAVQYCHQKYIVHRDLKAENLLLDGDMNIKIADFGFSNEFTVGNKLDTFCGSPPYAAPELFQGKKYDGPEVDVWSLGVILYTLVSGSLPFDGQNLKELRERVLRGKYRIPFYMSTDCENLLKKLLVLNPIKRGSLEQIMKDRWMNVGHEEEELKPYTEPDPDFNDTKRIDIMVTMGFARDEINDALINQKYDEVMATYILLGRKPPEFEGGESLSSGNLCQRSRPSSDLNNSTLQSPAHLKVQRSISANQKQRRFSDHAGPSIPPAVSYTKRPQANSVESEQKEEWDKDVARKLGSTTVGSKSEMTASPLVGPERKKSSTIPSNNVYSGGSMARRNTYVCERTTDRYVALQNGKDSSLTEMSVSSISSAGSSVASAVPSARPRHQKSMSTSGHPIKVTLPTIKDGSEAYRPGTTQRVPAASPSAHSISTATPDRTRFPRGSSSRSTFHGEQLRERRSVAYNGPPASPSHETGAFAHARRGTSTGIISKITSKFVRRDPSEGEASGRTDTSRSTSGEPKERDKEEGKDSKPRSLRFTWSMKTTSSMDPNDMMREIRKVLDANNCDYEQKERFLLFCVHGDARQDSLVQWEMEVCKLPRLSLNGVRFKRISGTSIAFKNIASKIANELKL

[5] = target: Ribosomal protein S6 kinase alpha-1 (Homo sapiens, UniProt Q15418); assay: Selectivity interaction (Kinase panel (Z-LYTE Assay)) EUB0001632a RPS6KA1; settings: at 10 µM
Ribosomal protein S6 kinase alpha-1, sequence (Q15418 whole entry): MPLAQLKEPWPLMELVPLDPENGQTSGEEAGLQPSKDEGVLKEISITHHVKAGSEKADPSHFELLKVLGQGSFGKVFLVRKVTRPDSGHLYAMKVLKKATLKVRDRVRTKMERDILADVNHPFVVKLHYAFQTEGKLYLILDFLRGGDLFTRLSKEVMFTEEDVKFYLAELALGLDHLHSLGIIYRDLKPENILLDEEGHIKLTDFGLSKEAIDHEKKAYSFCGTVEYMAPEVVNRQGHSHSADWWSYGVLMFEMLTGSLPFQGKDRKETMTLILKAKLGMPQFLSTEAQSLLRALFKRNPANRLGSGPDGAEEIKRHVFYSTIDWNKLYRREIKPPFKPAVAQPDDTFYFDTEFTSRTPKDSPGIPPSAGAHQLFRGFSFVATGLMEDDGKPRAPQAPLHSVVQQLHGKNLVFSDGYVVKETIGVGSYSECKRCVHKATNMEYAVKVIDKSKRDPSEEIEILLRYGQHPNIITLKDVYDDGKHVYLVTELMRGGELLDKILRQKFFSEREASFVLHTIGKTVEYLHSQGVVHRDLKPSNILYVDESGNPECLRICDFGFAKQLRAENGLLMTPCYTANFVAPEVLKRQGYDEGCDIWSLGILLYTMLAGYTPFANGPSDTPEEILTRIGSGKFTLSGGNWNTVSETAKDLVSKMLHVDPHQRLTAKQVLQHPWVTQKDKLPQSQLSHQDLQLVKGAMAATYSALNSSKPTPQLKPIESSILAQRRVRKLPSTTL

[6] = target: Mitogen-activated protein kinase 3 (Homo sapiens, UniProt P27361); assay: Selectivity interaction (Kinase panel (Z-LYTE Assay)) EUB0001632a MAPK3; settings: at 10 µM
Mitogen-activated protein kinase 3, sequence (P27361 whole entry): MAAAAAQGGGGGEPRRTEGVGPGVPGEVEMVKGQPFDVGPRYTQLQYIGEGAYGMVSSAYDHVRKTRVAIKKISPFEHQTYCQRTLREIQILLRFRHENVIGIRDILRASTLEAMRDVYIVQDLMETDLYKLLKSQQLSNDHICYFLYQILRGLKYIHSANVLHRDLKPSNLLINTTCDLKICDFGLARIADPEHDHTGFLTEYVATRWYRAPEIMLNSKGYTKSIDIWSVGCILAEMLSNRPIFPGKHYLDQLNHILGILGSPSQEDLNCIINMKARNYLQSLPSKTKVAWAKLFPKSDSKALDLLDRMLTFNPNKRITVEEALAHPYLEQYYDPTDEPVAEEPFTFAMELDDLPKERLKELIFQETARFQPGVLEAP

[7] = target: Ribosomal protein S6 kinase alpha-6 (Homo sapiens, UniProt Q9UK32); assay: Selectivity interaction (KinomeScan (DiscoverX)) EUB0000229b RPS6KA6; settings: at 10 µM
[8] = target: T3, Mitogen-activated protein kinase 15 (Homo sapiens) (UniProt Q8TD08); assay: Selectivity interaction (KinomeScan (DiscoverX)) EUB0000229b MAPK15; settings: at 10 µM
T3 sequence (whole entry): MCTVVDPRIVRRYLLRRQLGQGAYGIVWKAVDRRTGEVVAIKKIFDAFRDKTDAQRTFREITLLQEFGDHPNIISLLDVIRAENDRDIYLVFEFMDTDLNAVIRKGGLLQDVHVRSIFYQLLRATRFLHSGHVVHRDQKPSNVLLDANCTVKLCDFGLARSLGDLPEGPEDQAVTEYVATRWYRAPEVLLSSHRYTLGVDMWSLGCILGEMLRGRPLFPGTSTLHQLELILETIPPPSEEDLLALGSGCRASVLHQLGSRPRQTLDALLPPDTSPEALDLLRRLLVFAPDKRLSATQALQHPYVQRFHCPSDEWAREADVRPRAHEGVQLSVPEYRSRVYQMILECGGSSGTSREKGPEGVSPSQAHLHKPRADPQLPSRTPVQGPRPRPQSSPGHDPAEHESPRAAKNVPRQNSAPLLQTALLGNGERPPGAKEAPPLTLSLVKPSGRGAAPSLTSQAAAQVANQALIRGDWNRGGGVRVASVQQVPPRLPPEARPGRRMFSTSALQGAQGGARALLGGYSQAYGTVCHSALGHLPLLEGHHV

[9] = target: Serine/threonine-protein kinase 33 (Homo sapiens) (UniProt Q9BYT3); assay: Selectivity interaction (KinomeScan (DiscoverX)) EUB0001079a STK33; settings: at 1 µM
Serine/threonine-protein kinase 33 (Homo sapiens), sequence (Q9BYT3 whole entry, looked up): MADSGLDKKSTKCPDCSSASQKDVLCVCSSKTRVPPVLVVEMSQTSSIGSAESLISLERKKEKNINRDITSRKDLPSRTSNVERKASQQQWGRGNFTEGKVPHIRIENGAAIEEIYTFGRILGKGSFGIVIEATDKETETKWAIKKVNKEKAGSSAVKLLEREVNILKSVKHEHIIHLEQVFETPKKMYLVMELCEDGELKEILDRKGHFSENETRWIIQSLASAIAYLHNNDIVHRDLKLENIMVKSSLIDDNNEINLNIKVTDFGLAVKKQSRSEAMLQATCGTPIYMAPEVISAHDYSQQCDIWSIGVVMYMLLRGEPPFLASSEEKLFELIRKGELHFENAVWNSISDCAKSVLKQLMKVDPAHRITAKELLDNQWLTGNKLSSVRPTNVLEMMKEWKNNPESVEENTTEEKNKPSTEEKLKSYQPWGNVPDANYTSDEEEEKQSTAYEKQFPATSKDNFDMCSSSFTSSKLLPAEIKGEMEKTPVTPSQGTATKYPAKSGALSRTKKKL

[10] = target: Protein kinase C theta type (Homo sapiens, UniProt Q04759); assay: Selectivity interaction (ProQinase) EUB0000171b PRKCQ
Protein kinase C theta type, sequence (Q04759 whole entry, looked up): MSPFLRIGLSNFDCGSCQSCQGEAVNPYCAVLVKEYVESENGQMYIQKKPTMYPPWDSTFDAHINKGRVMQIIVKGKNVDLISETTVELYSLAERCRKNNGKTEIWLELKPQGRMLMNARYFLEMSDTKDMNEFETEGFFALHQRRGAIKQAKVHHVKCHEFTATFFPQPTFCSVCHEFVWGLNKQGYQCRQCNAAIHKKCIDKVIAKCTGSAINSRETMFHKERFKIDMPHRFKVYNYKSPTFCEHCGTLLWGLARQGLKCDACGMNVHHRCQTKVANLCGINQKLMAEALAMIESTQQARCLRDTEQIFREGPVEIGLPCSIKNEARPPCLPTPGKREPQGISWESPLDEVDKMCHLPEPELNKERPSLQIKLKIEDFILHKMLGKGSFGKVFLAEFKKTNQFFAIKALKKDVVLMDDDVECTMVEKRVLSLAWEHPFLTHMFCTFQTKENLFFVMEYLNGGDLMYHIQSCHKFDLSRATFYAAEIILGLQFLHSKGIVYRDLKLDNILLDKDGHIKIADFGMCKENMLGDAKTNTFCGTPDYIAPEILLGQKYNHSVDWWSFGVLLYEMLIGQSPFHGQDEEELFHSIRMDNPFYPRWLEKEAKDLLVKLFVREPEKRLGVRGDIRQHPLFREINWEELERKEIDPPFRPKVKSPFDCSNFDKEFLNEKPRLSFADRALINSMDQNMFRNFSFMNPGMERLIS

[11] = test system: Tyrosine-protein kinase ABL1 (Homo sapiens), P00519 [T315I]; assay: Selectivity interaction (KinomeScan (DiscoverX)) EUB0000045b ABL1; settings: at 10 µM
[12] = target: Serine/threonine-protein kinase tousled-like 2 (Homo sapiens) (UniProt Q86UE8); assay: Selectivity interaction (ActivX KiNativ screen (ex vivo kinase selectivity in human PBMCs)) EUB0001619a TLK2; assay type: cell-based; settings: PBMC, at 1 µM
Serine/threonine-protein kinase tousled-like 2 (Homo sapiens), sequence (Q86UE8 whole entry, looked up): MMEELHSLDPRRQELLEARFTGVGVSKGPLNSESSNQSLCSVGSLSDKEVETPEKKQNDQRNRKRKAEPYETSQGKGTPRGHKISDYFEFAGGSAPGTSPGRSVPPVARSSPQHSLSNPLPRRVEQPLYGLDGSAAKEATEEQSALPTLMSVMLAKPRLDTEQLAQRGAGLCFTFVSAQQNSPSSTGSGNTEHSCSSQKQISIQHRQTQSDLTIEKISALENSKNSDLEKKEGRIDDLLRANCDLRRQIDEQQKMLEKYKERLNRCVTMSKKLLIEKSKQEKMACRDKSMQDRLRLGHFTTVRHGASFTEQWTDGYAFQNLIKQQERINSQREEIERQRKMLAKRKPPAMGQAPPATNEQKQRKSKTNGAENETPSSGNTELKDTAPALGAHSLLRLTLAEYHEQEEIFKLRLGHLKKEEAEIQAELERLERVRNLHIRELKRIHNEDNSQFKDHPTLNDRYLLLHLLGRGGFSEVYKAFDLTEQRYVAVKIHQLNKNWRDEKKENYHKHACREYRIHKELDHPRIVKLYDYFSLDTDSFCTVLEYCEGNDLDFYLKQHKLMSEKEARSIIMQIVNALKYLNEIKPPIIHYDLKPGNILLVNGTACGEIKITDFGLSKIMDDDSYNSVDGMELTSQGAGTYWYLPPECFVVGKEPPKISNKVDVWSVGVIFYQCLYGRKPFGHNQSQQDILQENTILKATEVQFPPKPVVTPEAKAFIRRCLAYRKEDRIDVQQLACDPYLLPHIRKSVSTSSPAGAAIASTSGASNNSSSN

[13] = target: Calcium/calmodulin-dependent protein kinase type 1 (Homo sapiens) (UniProt Q14012); assay: Selectivity interaction (ActivX KiNativ screen (ex vivo kinase selectivity in human PBMCs)) EUB0001619a CAMK1; assay type: cell-based; settings: PBMC, at 1 µM
Calcium/calmodulin-dependent protein kinase type 1 (Homo sapiens), sequence (Q14012 whole entry, looked up): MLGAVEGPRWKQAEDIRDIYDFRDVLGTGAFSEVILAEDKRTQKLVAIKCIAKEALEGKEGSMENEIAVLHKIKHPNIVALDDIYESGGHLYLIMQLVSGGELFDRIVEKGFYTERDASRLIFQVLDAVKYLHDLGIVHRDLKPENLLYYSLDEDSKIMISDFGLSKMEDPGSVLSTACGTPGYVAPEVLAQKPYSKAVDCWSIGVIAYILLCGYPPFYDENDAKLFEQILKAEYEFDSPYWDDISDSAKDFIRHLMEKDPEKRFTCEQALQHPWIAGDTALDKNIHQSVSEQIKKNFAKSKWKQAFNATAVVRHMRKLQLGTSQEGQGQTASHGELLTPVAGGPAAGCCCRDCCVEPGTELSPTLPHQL

[14] = target: T4, cAMP-dependent protein kinase catalytic subunit PRKX (Homo sapiens) (UniProt P51817); assay: Selectivity interaction (KinomeScan (DiscoverX)) EUB0000607a PRKX; settings: at 10 µM
T4 sequence (whole entry): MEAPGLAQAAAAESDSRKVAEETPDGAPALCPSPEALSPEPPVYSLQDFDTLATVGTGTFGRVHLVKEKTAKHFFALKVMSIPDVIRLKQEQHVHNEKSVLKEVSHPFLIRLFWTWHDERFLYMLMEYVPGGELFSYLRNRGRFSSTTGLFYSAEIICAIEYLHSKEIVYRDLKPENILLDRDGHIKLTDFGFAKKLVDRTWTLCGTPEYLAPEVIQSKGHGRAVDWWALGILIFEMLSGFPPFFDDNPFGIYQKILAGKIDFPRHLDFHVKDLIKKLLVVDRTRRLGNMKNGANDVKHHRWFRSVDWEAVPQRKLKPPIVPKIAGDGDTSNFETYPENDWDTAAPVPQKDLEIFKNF

[15] = target: Homeodomain-interacting protein kinase 2 (Homo sapiens, UniProt Q9H2X6); assay: Selectivity interaction (KinomeScan (DiscoverX)) EUB0000666a HIPK2; settings: at 10 µM

Ribosomal protein S6 kinase alpha-4 (Homo sapiens), sequence (O75676 whole entry, looked up): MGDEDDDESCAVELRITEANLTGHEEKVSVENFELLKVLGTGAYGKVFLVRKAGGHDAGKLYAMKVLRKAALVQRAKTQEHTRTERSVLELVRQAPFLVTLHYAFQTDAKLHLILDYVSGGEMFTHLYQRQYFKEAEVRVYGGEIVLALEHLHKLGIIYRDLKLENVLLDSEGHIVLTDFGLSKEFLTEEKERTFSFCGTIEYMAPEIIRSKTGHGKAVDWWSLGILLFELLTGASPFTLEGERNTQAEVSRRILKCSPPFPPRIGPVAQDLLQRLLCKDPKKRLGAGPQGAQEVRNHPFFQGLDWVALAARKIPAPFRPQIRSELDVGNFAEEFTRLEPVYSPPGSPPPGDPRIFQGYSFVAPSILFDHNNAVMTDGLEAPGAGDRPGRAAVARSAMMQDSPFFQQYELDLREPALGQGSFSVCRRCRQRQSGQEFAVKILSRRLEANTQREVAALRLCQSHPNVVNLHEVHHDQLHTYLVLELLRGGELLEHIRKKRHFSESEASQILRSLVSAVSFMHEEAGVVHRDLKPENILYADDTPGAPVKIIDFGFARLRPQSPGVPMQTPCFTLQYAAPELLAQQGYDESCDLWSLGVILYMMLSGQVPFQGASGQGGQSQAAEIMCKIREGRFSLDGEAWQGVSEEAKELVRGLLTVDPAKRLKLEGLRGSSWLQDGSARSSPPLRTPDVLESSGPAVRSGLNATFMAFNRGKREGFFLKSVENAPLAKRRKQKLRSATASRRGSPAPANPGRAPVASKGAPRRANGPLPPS

`Cc1cnc(Nc2ccc(F)cc2Cl)nc1-c1c[nH]c(C(=O)N[C@H](CO)c2cccc(Cl)c2)c1` gave a % of inhibition [1] of 6%.
With `CCn1c(-c2nc3cc(C(=O)N4CCCC(N)C4)ccc3n2C)cc2ccccc21` (stereo unspecified) the pXC50 [2] was 4.7 M.
Compound `CC[C@@H]1[C@H](F)C(=O)N[C@@H]1COc1nccc2cc(C(N)=O)c(OC)cc12` [ZIMLOVISERTIB] has a % of inhibition [3] of 10.2%.
`Cn1cc(-n2cnc3c(NCc4nc5cc(Cl)c(Cl)cc5[nH]4)nc(N4CCOCC4)nc32)cn1` gave a % of control [4] of 3.94%, a % of control [5] of -6.37% and a % of control [6] of -1.61%.
With `COc1cc(N(C)c2ccnc3ccc(C(F)(F)F)cc23)cc(OC)c1OC` the % binding [7] was 74% and the % binding [8] was 100%.
`Nc1cnc(N2CCc3cc(S(=O)(=O)Nc4c(F)cc(Cl)cc4F)cc(N4CCCC4=O)c32)nc1` [TP-020n] gave a % of control [9] of 80%.
`C=CC(=O)Nc1cccc(C(=O)Nc2ccc(Nc3cc(-c4[nH]c(SC)nc4C)ccn3)cc2)c1` showed a % of control ([10]; at 1 µM) of 97% and a % of control ([10]; at 5 µM) of 96%.
`C=CC(=O)Nc1cc(-n2c(=O)ccc3cnc4ccc(-c5ccc(NS(C)(=O)=O)cc5)cc4c32)ccc1C` was tested, and the % of control [11] was 100%.
Work on `N#Cc1cccc(-c2c[nH]c3ncnc(N4CCOCC4)c23)c1` yielded a % of inhibition [12] of -21% and a % of inhibition [13] of 2%.
`CNC(=O)Nc1ccc(-c2nc(N3CC4CCC(C3)O4)c3cnn(C4CCC5(CC4)OCCO5)c3n2)cc1` showed a % of control [14] of 100%.
`O=C(NOC[C@H](O)CO)c1ccc(F)c(F)c1Nc1ccc(I)cc1F` gave a % of control [15] of 100%.
